Here are results for three compounds from patent US10548843B2, “Sustained-release silica composite depot non-steroidal anti-inflammatory drug delivery” (Solani Therapeutics, priority 2015, dated 2020).

The conditions of series [1]: dogs, single oral administration; cited from earlier work.
The conditions of series [2]: cited from earlier work.
The nature of series [3]: Concentration of meloxicam in plasma of dogs after single subcutaneous silica hydrogel depot. The series is classed as in vivo. Particulars: dog, sc, 3.16 mg meloxicam/kg bodyweight, single s.c. silica hydrogel depot. As for the experimental part: Example 1 relates to animal studies carried out. […] The appropriate dose of TI was administered subcutaneously as a one off dose at the area behind the shoulder blade.

Series [4] in a line: Mouse study: body weight at necropsy. It is filed as in vivo, mouse (BALB/cAnNCrl, male). The following applies: SiO2 left flank, SiO2 with meloxicam right flank, s.c. 0.1 ml. As for the experimental part:
A mouse study was carried out using 15 animals from University of Turku, Central Animal Laboratory, Pharmacity breeding unity. All animals were BALB/cAnNCrl, male. The animals were acclimatised for 15 days. No period of isolation was needed. At the start of the study the animals were aged 10-13 weeks and weighed 28.9 g±1.38 g (min. 26.6 g, max 31.1 g).
Administration of the test items was carried out according to the study design set out in Table 3. The test item was administered by subcutaneous (back) injection using a syringe and an 18G needle at a dose volume of 0.1 ml/mouse.
Animals were weighed and euthanized (CO2) at the end of the experiment (Animals #1, 2, and 3 were not weighed). The injection sites were macroscopically observed and digital pictures from test items in soft tissue was taken at the each time point. The test item (gel) was removed from a soft tissue when possible.

[5] abbreviates: Animal 4, necropsy 7 days after injections.
Setting [6] is: Animal 7, necropsy 14 days after injections.
[7] abbreviates: Animal 10, necropsy 28 days after injections.

Molecules are shown by their SMILES.

On to `NS(=O)(=O)c1ccc(-n2nc(C(F)(F)F)cc2-c2ccc(F)cc2)cc1` [Mavacoxib], for which the “Time a therapeutic level is maintained” value in series [1] is listed as “one month”.
In the case of `CC(C(=O)O)c1ccc2c(c1)[nH]c1ccc(Cl)cc12` (centres unmarked) [carprofen], the Solubility in water result in series [2] is listed as “practically insoluble in water”.
Consider `Cc1cnc(NC(=O)C2=C(O)c3ccccc3S(=O)(=O)N2C)s1` [meloxicam], for which the concentration at 0 hours in series [3] (Dog 1, 0.0 hours) was 0 ng/mL; in series [3] (Dog 2, 0.0 hours) it was 0 ng/mL; in series [3] (Dog 3, 0.0 hours) it was 0 ng/mL. Moreover, the concentration at 0.5 hours came to 43.2 ng/mL in series [3] (Dog 1, 0.5 hours); 27 ng/mL in series [3] (Dog 2, 0.5 hours); 27.1 ng/mL in series [3] (Dog 3, 0.5 hours). Besides, the concentration at 1 hours in series [3] (Dog 1, 1.0 hours) was determined as 132 ng/mL; in series [3] (Dog 2, 1.0 hours), 76 ng/mL; in series [3] (Dog 3, 1.0 hours), 93.9 ng/mL. Also, the concentration at 2 hours is 296 ng/mL in series [3] (Dog 1, 2.0 hours); 153 ng/mL in series [3] (Dog 2, 2.0 hours); 215 ng/mL in series [3] (Dog 3, 2.0 hours). The concentration at 3 hours came out at 379 ng/mL in series [3] (Dog 1, 3.0 hours); 227 ng/mL in series [3] (Dog 2, 3.0 hours); 301 ng/mL in series [3] (Dog 3, 3.0 hours). The concentration at 4 h in series [3] (Dog 1, 4.0 hours) was 402 ng/mL; in series [3] (Dog 2, 4.0 hours), 257 ng/mL; in series [3] (Dog 3, 4.0 hours) it was 319 ng/mL. For the same compound, the concentration at 6 h in series [3] (Dog 1, 6.0 hours) stood at 375 ng/mL; in series [3] (Dog 2, 6.0 hours) it was 349 ng/mL; in series [3] (Dog 3, 6.0 hours), 359 ng/mL. The concentration at 8 h in series [3] (Dog 1, 8.0 hours) is 294 ng/mL; in series [3] (Dog 2, 8.0 hours) it was 344 ng/mL; in series [3] (Dog 3, 8.0 hours) it was 404 ng/mL. Moreover, the concentration at 12 h stood at 363 ng/mL in series [3] (Dog 1, 12.0 hours); 447 ng/mL in series [3] (Dog 2, 12.0 hours); 559 ng/mL in series [3] (Dog 3, 12.0 hours). Besides, the concentration at 504 h in series [3] (Dog 1, 504.0 hours) came out at 4.3 ng/mL; in series [3] (Dog 2, 504.0 hours), 115 ng/mL; in series [3] (Dog 3, 504.0 hours), 33.1 ng/mL. In addition, the concentration at 576 h worked out at 2.6 ng/mL in series [3] (Dog 1, 576.0 hours); 101 ng/mL in series [3] (Dog 2, 576.0 hours); 16.6 ng/mL in series [3] (Dog 3, 576.0 hours). In series [3] (Dog 1, 672.0 hours), this compound showed a concentration at 672 h of 1.5 ng/mL. Further, the concentration at 840 hours turned out to be 1 ng/mL in series [3] (Dog 1, 840.0 hours); 40.1 ng/mL in series [3] (Dog 2, 840.0 hours); 6.5 ng/mL in series [3] (Dog 3, 840.0 hours). Further, the concentration at 1008 hours amounted to 0.9 ng/mL in series [3] (Dog 1, 1008.0 hours); 17.9 ng/mL in series [3] (Dog 2, 1008.0 hours); 5.6 ng/mL in series [3] (Dog 3, 1008.0 hours). In addition, the concentration at 1176 hours turned out to be 0.5 ng/mL in series [3] (Dog 1, 1176.0 hours); 5.6 ng/mL in series [3] (Dog 2, 1176.0 hours); 3 ng/mL in series [3] (Dog 3, 1176.0 hours). The concentration at 1344 hours in series [3] (Dog 1, 1344.0 hours) was 0.4 ng/mL; in series [3] (Dog 2, 1344.0 hours) it was 2.6 ng/mL; in series [3] (Dog 3, 1344.0 hours) it was 2.4 ng/mL. Besides, the concentration at 672 hours was 67.3 ng/mL in series [3] (Dog 2, 672.0 hours) and 11.6 ng/mL in series [3] (Dog 3, 672.0 hours). Besides, the Weight at necropsy in series [4] (setting [5]) was 27.3 g; in series [4] (setting [6]), 29.0 g; in series [4] (setting [7]), 32.7 g. In addition, the figures for the Weight gain in series [4] (setting [5]), in series [4] (setting [6]) and in series [4] (setting [7]) were -0.7 g, 0.0 g and 1.6 g, respectively. In addition, the Solubility in methanol result in series [2] (methanol) was “very slightly soluble”. Further, the “Solubility in strong acids and bases” value in series [2] (strong acids and bases, compared with water) was “higher solubility”. Besides, the Solubility in water entry in series [2] was “practically insoluble in water”.
